Results taken from US11414465B2, “Plasma membrane intrinsic aquaporin for absorbing and transporting neonicotinoid insecticides, and coding gene and use therefor” (JIANGSU ACADEMY OF ARGRICULTURAL SCIENCES, priority 2020, dated 2022).

Assays:
Chinese cabbage plants = details: 2 mg/L compound in Hoagland nutrient solution, mercuric chloride or glycerol added, 48 h
BraPIP1;1 gene = test: Response of BraPIP1;1 gene expression to thiamethoxam (quantitative RT-PCR); type: in vivo, Chinese cabbage; details: 10 mg/L thiamethoxam, p<0.001
Procedure: Seedlings of Chinese cabbage with the same growth condition were put in a Hoagland's nutrient solution containing 10 mg/L thiamethoxam (the Hoagland's nutrient solution was purchased from Beijing Coolaber Technology Co., Ltd.), and treated in the Hoagland's nutrient solution for 6 and 24 hours (treatment group).
At the same time, a Hoagland's nutrient solution without thiamethoxam was used as the control group.
Treated root and aboveground tissue RNA of two groups was extracted respectively, the 1st strand cDNA was obtained by reverse transcription as a template, specific expression primers were designed based on the cDNA sequence of BraPIP1;1, the Chinese cabbage Tublin was used as an internal reference, and the expression of the gene transcription level was detected by quantitative RT-PCR.
The quantification instrument is 7500 Real Time PCR System (Applied Biosystem), and a qPCRT system was configured according to the instructions of a kit 2×TSINGKE Master qPCR Mix (Tsingke Biotechnology Co., Ltd.). The PCR program is: pre-denaturation at 95° C. for 10 min, at 95° C. for 15 s, and at 60° C. for 20 s, for 40 cycles.

[1] = test system: Saccharomyces cerevisiae INVSc1 (pYES2-BraPIP1;1); test: Growth experiment of recombinant yeast strains under thiamethoxam stress; type: cell-based; details: 10-1600 mg/L thiamethoxam, stress at 30° C. for 72 h, compared with wild strain (pYES2)
Excerpt: (§1) The BraPIP1;1 gene cloned in Example 1 was constructed into the Saccharomyces cerevisiae overexpression vector pYES2 (purchased from Clotech) referring to (He Lin, Jiang Lili, Wang Yucheng, Analysis of the stress tolerance of Tamarix thioredoxin peroxidase (ThPrx1) gene transformed into yeast, Journal of Northeast Forestry University, 2011, Vol. 39. No. 4, 101-104), and the constructed recombinant plasmid was named pYES2-BraPIP1;1. The pYES2-BraPIP1;1 and an empty vector pYES2 were transformed into Saccharomyces cerevisiae INVSc1 by lithium acetate precipitation. The recombinant yeasts were named INVSc1 (pYES2-BraPIP1;1) and INVSc1 (pYES2), respectively.
(§2) Induction of recombinant strains: Single colonies of the control yeast INvsc1 (pYES2) and the recombinant yeast INvscl (pYES2-BraPIP1;1) were picked, inoculated in an SC-U liquid medium (with glucose of a final concentration of 2%) respectively, and incubated at 30° C. for 24 h on a shaker. The OD600 value is measured, and the amount of bacterial solution required is calculated such that the OD600 of bacteria in 10 ml of induction medium (SC-U+2% galactose) is 0.4. Induce expression was carried out at 30° C. for 24 h. The OD600 value was measured again, and the amount of bacterial solution required was calculated. […]

[2] = test system: Saccharomyces cerevisiae INVSc1 (pYES2-BraPIP1;1); test: Thiamethoxam content experiment, recombinant yeast strain; type: cell-based; details: 30° C., 6 h
Excerpt: as §1, §2

[3] = test system: Saccharomyces cerevisiae INVSc1 (pYES2); test: Thiamethoxam content experiment, control yeast strain; type: cell-based; details: 30° C., 6 h
Excerpt: as §1, §2

[4] = test system: BraPIP1;1 overexpression Arabidopsis thaliana (BraPIP1;1#4, BraPIP1;1#6); test: Main root length of BraPIP1;1 transgenic Arabidopsis thaliana under thiamethoxam stress; type: in vivo; details: 1/2MS media with 10 and 50 mg/L thiamethoxam, 20 days, compared with wild type Col-0
Excerpt: (§3) The BraPIP1;1 gene cloned in Example 1 was constructed into the plant binary overexpression vector pCAMBIA2301 (purchased from Clotech). By the Agrobacterium tumefaciens-mediated method (Valvekens, D., van Montagu, M., and Lijsebettens, M. V. (1988). Agrobacterium tumefaciens-mediated transformation of Arabidopsis thaliana root explants by using kanamycin selection. Proc. Natl. Acad. Sci. USA 85, 5536-5540.), the inflorescence of wild-type Arabidopsis thaliana Col-0 (purchased from ATCC, USA) was infected with the constructed overexpression vector. Through screening (resistance pure line seedlings were screened on a ½MS plate containing 50 μg/mL kanamycin), BraPIP1;1 overexpression Arabidopsis thaliana pure line materials BraPIP1;1#4 and BraPIP1;1#6 were identified and obtained.
The pure line seeds of the BraPIP1;1#4 and BraPIP1;1#6 obtained in the previous transgenic experiment and a wild-type Col-0 material (WT) were germinated on a ½MS medium respectively, and then transferred to ½MS media (Qingdao Hopebio Co., Ltd., Item No. HB8469-12, PH=5.6) containing 10 and 50 mg/L thiamethoxam respectively. After 20 days, the growth of the seedlings was observed and the main root length was measured.

[5] = test system: BraPIP1;1 overexpression Arabidopsis thaliana; test: Thiamethoxam content of BraPIP1;1 transgenic Arabidopsis thaliana grown in soil; type: in vivo; details: soil containing 10 mg/L thiamethoxam, 20 days, compared with wild plant
Excerpt: as §3
In addition, germinated seedlings of the same size were transplanted into soil containing 10 mg/L thiamethoxam, and after 20 days of culture, the root and aboveground samples of the transgenic Arabidopsis thaliana and the control were harvested respectively, washed with deionized water, and weighed.

## CN1CCCC1c1cccnc1 (stereo not drawn) [nicotine]
Chinese cabbage plants
  content of the compound in the plants after the water channel inhibitors were added: did not change significantly

## CN1COCN(Cc2cnc(Cl)s2)/C1=N\[N+](=O)[O-] [thiamethoxam]
BraPIP1;1 gene; 6 hours
  expression abundance of BraPIP1;1 in the aboveground parts vs control: significantly increased
  expression abundance of BraPIP1;1 in the roots vs control: significantly increased
BraPIP1;1 gene; 24 hours
  expression abundance of BraPIP1;1 in the aboveground parts vs control: significantly increased
[1]
  growth of transgenic strain (pYES2-BraPIP1;1) with thiamethoxam: grows weaker than the wild strain
[2]; 10 mg/L thiamethoxam
  thiamethoxam content of the recombinant strain: 0.0078 ng/OD
[2]; 100 mg/L thiamethoxam
  thiamethoxam content of the recombinant strain (pYES2-BraPIP1;1): 0.021 ng/OD
[3]; 10 mg/L thiamethoxam
  thiamethoxam content of the control strain: 0.0038 ng/OD
[3]; 100 mg/L thiamethoxam
  thiamethoxam content of the control strain (pYES2): 0.011 ng/OD
[4]
  main root length of the transgenic strain: shorter than that of the wild type
[5]
  thiamethoxam content of the aboveground parts of the transgenic plant: higher than that of the wild plant
  thiamethoxam content of the roots of the transgenic plant: higher than that of the wild plant
